Results taken from paper PMC10382584, “Macrocyclization of linear molecules by deep learning to facilitate macrocyclic drug candidates discovery” (Nature Communications, 2023).

What was measured:
Assay in all cases: biochemical
Parameters in all cases: DiscoveRx KINOMEscan competition binding, percent of DMSO control signal at 100 nM
Details in all cases: read-out: Fig. 4a / Percent Control / Compound 1; percent of DMSO control, competition binding
ABL1-phosphorylated = target: T1, ABL1-phosphorylated (Homo sapiens, UniProt P00519)
T1 construct: phosphorylated
Procedure: (§1) The kinase selectivity profile was performed by using the DiscoveRx KINOMEscan platform. […] Test compounds were prepared as 40× stocks in 100% DMSO and directly diluted into the assay. The results were defined as a percentage of signal between the negative (DMSO, 100% control) and the positive (control compound, 0% control) control, which was calculated as follows: percent control = [(test compound signal − positive control signal)/(negative control signal − positive control signal)] × 100.

ASK2 = target: T2, ASK2 (Homo sapiens, UniProt O95382)
T2 construct: gene MAP3K6
Procedure: as §1

CDC2L5 = target: T3, CDC2L5 (Homo sapiens, UniProt Q14004)
T3 construct: gene CDK13
Procedure: as §1

CDK7 = CDK7 (Homo sapiens, UniProt P50613)
Procedure: as §1

DCAMKL1 = target: T4, DCAMKL1 (Homo sapiens, UniProt O15075)
T4 construct: gene DCLK1
Procedure: as §1

DMPK2 = target: T5, DMPK2 (Homo sapiens, UniProt Q6DT37)
T5 construct: gene CDC42BPG
Procedure: as §1

EPHB4 = EPHB4 (Homo sapiens, UniProt P54760)
Procedure: as §1

FLT3(ITD,D835V) = FLT3(ITD,D835V) (Homo sapiens, UniProt P36888, D835V/ITD)
Procedure: as §1

HASPIN = HASPIN (Homo sapiens, UniProt Q8TF76)
Procedure: as §1

HUNK = HUNK (Homo sapiens, UniProt P57058)
Procedure: as §1

IGF1R = IGF1R (Homo sapiens, UniProt P08069)
Procedure: as §1

IRAK3 = IRAK3 (Homo sapiens, UniProt Q9Y616)
Procedure: as §1

MAP4K4 = MAP4K4 (Homo sapiens, UniProt O95819)
Procedure: as §1

MINK = target: T6, MINK (Homo sapiens, UniProt Q8N4C8)
T6 construct: gene MINK1
Procedure: as §1

NDR1 = target: T7, NDR1 (Homo sapiens, UniProt Q15208)
T7 construct: gene STK38
Procedure: as §1

NEK7 = NEK7 (Homo sapiens, UniProt Q8TDX7)
Procedure: as §1

PCTK3 = target: T8, PCTK3 (Homo sapiens, UniProt Q07002)
T8 construct: gene CDK18
Procedure: as §1

PIP5K1A = PIP5K1A (Homo sapiens, UniProt Q99755)
Procedure: as §1

PLK3 = PLK3 (Homo sapiens, UniProt Q9H4B4)
Procedure: as §1

PRKCH = PRKCH (Homo sapiens, UniProt P24723)
Procedure: as §1

[1] = target: T9, RSK1(Kin.Dom.1-N-terminal) (Homo sapiens, UniProt Q15418)
T9 construct: gene RPS6KA1; Kin.Dom.1-N-terminal
Procedure: as §1

TSSK1B = TSSK1B (Homo sapiens, UniProt Q9BXA7)
Procedure: as §1

TXK = TXK (Homo sapiens, UniProt P42681)
Procedure: as §1

[2] = target: T10, TYK2(JH1domain-catalytic) (Homo sapiens, UniProt P29597)
T10 construct: JH1domain-catalytic
Procedure: as §1

VEGFR2 = target: T11, VEGFR2 (Homo sapiens, UniProt P35968)
T11 construct: gene KDR
Procedure: as §1
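Also: KINOMEscan kinase panel binding assay, signal normalized between DMSO as 100% and a positive control compound as 0%.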

T6 sequence (Q8N4C8 whole entry): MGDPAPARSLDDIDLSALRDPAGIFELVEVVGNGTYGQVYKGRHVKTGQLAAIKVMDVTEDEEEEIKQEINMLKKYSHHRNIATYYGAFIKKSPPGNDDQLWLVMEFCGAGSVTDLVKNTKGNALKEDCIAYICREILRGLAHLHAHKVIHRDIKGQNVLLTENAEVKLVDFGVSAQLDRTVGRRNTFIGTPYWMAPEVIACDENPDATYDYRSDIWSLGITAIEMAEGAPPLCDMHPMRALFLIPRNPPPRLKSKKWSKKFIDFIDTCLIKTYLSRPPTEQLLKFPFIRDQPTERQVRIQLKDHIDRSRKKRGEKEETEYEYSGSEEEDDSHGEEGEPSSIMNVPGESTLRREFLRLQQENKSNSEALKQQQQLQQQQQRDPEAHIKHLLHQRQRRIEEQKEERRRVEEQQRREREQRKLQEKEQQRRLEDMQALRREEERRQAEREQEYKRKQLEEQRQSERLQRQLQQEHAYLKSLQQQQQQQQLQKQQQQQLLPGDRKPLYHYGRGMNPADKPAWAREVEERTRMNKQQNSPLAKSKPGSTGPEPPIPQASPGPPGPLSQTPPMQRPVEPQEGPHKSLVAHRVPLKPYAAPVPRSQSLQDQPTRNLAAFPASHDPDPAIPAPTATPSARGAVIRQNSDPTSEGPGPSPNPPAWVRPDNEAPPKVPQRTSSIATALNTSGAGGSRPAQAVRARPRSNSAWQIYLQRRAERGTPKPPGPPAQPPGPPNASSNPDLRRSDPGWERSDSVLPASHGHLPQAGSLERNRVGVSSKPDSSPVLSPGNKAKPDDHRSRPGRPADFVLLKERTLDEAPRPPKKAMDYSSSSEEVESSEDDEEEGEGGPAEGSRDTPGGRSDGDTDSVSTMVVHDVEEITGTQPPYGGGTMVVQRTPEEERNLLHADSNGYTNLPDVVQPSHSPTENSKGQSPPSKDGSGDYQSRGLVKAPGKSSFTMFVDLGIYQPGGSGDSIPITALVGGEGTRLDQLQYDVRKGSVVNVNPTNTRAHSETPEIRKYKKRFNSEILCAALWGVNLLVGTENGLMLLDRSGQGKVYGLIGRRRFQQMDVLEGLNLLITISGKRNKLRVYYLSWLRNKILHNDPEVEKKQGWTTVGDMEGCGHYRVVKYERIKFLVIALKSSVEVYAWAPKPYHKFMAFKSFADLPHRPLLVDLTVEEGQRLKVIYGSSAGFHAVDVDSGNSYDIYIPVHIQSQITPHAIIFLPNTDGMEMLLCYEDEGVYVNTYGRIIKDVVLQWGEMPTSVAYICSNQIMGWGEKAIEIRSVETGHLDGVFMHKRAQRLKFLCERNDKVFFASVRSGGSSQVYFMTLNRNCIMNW
T9 sequence (Q15418 whole entry): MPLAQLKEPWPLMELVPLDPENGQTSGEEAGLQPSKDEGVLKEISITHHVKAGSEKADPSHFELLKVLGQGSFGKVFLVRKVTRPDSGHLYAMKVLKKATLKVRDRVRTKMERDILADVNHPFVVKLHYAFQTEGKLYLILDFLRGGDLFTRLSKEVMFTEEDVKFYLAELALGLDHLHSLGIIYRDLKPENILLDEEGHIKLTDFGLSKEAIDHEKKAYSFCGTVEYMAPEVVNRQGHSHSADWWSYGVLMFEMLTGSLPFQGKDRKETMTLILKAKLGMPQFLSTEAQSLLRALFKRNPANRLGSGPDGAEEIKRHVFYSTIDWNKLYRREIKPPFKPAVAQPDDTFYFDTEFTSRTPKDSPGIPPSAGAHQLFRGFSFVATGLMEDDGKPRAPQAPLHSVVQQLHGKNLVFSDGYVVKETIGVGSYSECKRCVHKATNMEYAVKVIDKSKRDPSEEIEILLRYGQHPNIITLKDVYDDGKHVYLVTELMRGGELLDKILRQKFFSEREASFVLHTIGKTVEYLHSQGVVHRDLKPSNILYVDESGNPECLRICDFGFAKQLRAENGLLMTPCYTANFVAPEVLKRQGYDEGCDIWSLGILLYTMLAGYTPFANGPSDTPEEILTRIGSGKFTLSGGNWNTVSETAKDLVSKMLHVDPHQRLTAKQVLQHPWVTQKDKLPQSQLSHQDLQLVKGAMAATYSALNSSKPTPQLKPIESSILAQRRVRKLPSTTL
Chain of PRKCH (P24723 whole entry): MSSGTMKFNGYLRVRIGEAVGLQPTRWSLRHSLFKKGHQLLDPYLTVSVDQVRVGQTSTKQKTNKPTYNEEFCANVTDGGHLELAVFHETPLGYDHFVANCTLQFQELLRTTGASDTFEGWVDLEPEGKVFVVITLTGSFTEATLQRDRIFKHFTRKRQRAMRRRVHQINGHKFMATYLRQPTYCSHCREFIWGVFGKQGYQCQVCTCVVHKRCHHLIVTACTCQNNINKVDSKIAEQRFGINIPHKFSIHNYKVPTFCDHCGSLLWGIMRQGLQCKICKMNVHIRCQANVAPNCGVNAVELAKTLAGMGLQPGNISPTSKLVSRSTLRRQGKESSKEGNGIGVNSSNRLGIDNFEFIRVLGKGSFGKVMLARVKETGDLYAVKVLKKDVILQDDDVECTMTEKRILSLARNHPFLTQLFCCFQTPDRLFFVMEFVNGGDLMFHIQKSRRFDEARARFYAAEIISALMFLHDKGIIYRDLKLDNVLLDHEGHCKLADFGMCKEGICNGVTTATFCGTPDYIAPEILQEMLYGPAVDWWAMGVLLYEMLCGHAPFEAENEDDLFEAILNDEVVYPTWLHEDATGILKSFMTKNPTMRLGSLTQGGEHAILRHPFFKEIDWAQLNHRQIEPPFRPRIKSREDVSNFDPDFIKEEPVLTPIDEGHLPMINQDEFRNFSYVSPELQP
Chain of PIP5K1A (Q99755 whole entry): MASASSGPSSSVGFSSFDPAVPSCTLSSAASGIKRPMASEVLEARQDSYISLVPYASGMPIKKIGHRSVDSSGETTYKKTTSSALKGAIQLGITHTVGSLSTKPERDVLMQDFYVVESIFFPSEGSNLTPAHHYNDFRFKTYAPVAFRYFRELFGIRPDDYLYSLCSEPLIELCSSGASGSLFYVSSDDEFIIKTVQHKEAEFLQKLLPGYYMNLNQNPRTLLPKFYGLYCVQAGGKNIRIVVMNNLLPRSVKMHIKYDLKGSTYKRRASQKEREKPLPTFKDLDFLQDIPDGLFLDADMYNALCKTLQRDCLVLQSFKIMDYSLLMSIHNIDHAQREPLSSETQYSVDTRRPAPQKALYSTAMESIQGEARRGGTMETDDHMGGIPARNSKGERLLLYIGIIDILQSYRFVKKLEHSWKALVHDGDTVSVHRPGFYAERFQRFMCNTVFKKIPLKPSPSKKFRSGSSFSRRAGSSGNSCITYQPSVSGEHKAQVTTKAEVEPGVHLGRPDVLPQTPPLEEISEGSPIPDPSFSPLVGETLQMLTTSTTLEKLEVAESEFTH
T5 sequence (Q6DT37 whole entry): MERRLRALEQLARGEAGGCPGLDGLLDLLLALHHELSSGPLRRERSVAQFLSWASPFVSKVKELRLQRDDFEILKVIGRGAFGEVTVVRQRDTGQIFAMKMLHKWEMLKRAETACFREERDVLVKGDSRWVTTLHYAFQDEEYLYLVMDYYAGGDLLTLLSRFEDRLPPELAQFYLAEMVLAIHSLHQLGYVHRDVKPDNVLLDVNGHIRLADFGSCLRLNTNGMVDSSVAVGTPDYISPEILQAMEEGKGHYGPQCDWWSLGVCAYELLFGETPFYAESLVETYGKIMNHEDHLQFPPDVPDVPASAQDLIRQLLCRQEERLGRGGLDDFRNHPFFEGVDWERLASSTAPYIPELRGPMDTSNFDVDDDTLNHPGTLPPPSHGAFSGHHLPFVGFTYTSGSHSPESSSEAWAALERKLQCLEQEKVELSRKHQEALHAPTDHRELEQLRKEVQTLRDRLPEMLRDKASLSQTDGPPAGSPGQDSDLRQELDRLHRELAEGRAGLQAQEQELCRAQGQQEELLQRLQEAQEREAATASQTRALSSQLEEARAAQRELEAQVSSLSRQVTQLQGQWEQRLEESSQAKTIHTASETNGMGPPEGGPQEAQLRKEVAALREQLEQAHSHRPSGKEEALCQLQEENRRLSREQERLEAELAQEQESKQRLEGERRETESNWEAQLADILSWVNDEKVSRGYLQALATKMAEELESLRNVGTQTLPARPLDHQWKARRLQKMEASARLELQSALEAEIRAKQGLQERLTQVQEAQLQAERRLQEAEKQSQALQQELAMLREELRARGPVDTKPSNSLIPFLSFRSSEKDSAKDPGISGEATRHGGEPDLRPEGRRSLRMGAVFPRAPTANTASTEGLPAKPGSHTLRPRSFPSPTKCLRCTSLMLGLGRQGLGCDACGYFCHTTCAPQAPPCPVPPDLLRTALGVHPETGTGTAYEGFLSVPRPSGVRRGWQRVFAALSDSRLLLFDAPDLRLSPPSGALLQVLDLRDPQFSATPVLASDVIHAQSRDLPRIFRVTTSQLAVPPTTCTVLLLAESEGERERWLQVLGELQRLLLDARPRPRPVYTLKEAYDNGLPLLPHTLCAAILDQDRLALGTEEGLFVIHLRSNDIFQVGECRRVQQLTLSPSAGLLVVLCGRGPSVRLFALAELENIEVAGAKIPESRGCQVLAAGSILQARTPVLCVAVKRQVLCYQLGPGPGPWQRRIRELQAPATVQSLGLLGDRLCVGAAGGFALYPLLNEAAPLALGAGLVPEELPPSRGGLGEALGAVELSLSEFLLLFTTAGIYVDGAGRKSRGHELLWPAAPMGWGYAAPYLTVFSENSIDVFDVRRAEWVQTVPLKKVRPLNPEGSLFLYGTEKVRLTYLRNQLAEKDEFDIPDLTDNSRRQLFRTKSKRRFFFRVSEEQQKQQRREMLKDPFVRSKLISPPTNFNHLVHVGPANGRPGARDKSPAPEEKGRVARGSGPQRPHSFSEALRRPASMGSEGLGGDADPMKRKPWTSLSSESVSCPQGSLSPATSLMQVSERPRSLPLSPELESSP

**Q.** `Cc1cnc2nc1Nc1cccc(c1)COCc1cc(ccc1OCCN1CCCC1)N2` [Compound 1] was tested. Which remaining binding at 0.1 µM (ABL1-phosphorylated) did it give?
**A.** 90%

**Q.** And the remaining binding at 0.1 µM (ASK2)?
**A.** 96%

**Q.** And the remaining binding at 0.1 µM (CDC2L5)?
**A.** 81%

**Q.** What about the remaining binding at 0.1 µM (CDK7) of the same compound?
**A.** 77%

**Q.** What about the remaining binding at 0.1 µM (DCAMKL1) of the same compound?
**A.** 90%

**Q.** What about the remaining binding at 0.1 µM (DMPK2) of the same compound?
**A.** 98%

**Q.** What about the remaining binding at 0.1 µM (EPHB4) of the same compound?
**A.** 100%

**Q.** What about the remaining binding at 0.1 µM (FLT3(ITD,D835V)) of the same compound?
**A.** 2.1%

**Q.** And the remaining binding at 0.1 µM (HASPIN)?
**A.** 79%

**Q.** And the remaining binding at 0.1 µM (HUNK)?
**A.** 100%

**Q.** And the remaining binding at 0.1 µM (IGF1R)?
**A.** 91%

**Q.** What about the remaining binding at 0.1 µM (IRAK3) of the same compound?
**A.** 53%

**Q.** What about the remaining binding at 0.1 µM (MAP4K4) of the same compound?
**A.** 82%

**Q.** And the remaining binding at 0.1 µM (MINK)?
**A.** 82%

**Q.** What about the remaining binding at 0.1 µM (NDR1) of the same compound?
**A.** 87%

**Q.** What about the remaining binding at 0.1 µM (NEK7) of the same compound?
**A.** 72%

**Q.** What about the remaining binding at 0.1 µM (PCTK3) of the same compound?
**A.** 85%

**Q.** And the remaining binding at 0.1 µM (PIP5K1A)?
**A.** 49%

**Q.** And the remaining binding at 0.1 µM (PLK3)?
**A.** 99%

**Q.** And the remaining binding at 0.1 µM (PRKCH)?
**A.** 91%

**Q.** What about the remaining binding at 0.1 µM [1] of the same compound?
**A.** 97%

**Q.** What about the remaining binding at 0.1 µM (TSSK1B) of the same compound?
**A.** 92%

**Q.** And the remaining binding at 0.1 µM (TXK)?
**A.** 94%

**Q.** What about the remaining binding at 0.1 µM [2] of the same compound?
**A.** 27%

**Q.** What about the remaining binding at 0.1 µM (VEGFR2) of the same compound?
**A.** 63%
